pIC50: −log10 of the molar value. Where a SMILES comes first, the peptide text is derived from it. Bridges are numbered along the chain shown (N, C = ends). Where no end group is shown, it is not given here.
Columns and labels:
[1] = target: T1, human PAC1 receptor (Homo sapiens, UniProt P41586); assay: LANCE Ultra cAMP accumulation antagonist assay in SHSY-5Y cells; assay type: cell-based;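 further: inhibition of cAMP accumulation evoked by PAC1 agonist at its EC80 in SHSY-5Y cells endogenously expressing receptor, 30 min preincubation then 15 min agonist, TR-FRET readout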
T1 construct: SHSY-5Y (human neuroblastoma cell line) and RG-2 (rat glioma cell line) cells endogenously express human and rat PAC1 receptors, respectively; endogenous in cells; host or cells: SHSY-5Y human neuroblastoma cells
T1 sequence (P41586 21-468): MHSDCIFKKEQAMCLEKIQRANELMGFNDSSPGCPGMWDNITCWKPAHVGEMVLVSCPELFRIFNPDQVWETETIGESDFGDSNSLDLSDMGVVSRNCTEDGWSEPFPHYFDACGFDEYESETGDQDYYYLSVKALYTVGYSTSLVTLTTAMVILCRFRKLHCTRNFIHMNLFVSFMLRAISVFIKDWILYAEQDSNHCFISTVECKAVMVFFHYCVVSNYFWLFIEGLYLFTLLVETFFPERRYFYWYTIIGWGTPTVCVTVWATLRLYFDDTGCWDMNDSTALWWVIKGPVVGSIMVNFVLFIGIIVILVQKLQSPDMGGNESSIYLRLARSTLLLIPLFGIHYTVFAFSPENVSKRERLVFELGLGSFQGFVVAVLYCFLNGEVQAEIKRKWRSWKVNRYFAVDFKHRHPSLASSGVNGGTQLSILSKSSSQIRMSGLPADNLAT
Experimental: In order to determine the potency of peptide antagonists at the PAC1 receptor, functional cAMP accumulation assays using LANCE Ultra cAMP assay kit to measure the agonist and antagonist activity of PAC1 peptides were used. SHSY-5Y (human neuroblastoma cell line) and RG-2 (rat glioma cell line) cells endogenously express human and rat PAC1 receptors, respectively. Agonist activity of PAC1 peptides was tested by incubating with SHSY-5Y at 2,000 cells per well or RG-2 at 5,000 cells per well for 15 minutes at room temperature. PAC1 receptor agonist PACAP38 or maxadilan was included as a positive control. The reaction was stopped by adding detection mixture, europium (Eu) chelate-labeled cAMP tracer and cAMP-specific monoclonal antibodies labeled with the ULight™ dye, to all wells followed by a 60-minute incubation at room temperature. The assay plates were then read on an EnVision instrument at an emission wavelength of 665 and 615 nm and data were analyzed using Genedata Screener or GraphPad Prism software. A similar procedure was used in the antagonist assays by using a fixed concentration of PAC1 agonist. The concentrations of agonists were chosen based on their ECK) values at PAC1 receptors in SHSY-5Y or RG-2 cells. SHSY-5Y or RG-2 cells were added into 96-well half-area white plates. Serially diluted PAC1 peptides at ten concentrations were added and incubated for 30 minutes at room temperature. PAC1 agonist at EC80 concentration was then added and further incubated for 15 minutes at room temperature. The reaction was stopped by adding detection mixture to all wells followed by a 60-minute incubation at room temperature. The assay plates were read and analyzed the same way as that of agonist assay. Cells, agonists, and PAC1 peptides were prepared in freshly made assay buffer (F-12, 0.5 mM IBMX, 0.1 or 0.4% BSA (pH 7.4)). Detection mixture was made by mixing a 1/50 dilution of the Eu-cAMP tracer stock solution in cAMP Detection Buffer and a 1/150 dilution of the ULight-anti-cAMP stock solution in cAMP Detection Buffer. Europium (Eu) chelate-labeled cAMP tracer, cAMP-specific monoclonal antibodies labeled with the ULight™ dye, BSA, and detection buffer were provided in LANCE Ultra cAMP Kit from PerkinElmer

[2] = target: T2, rat PAC1 receptor (Rattus norvegicus, UniProt P32215); assay: LANCE Ultra cAMP accumulation antagonist assay in RG-2 cells; assay type: cell-based;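 further: RG-2 rat glioma cells endogenously expressing PAC1, test peptide preincubated 30 min, then PAC1 agonist added at its EC80 for 15 min, cAMP accumulation read by LANCE Ultra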
T2 construct: SHSY-5Y (human neuroblastoma cell line) and RG-2 (rat glioma cell line) cells endogenously express human and rat PAC1 receptors, respectively; endogenous in cells; host or cells: RG-2 rat glioma cells
T2 sequence (P32215 20-523): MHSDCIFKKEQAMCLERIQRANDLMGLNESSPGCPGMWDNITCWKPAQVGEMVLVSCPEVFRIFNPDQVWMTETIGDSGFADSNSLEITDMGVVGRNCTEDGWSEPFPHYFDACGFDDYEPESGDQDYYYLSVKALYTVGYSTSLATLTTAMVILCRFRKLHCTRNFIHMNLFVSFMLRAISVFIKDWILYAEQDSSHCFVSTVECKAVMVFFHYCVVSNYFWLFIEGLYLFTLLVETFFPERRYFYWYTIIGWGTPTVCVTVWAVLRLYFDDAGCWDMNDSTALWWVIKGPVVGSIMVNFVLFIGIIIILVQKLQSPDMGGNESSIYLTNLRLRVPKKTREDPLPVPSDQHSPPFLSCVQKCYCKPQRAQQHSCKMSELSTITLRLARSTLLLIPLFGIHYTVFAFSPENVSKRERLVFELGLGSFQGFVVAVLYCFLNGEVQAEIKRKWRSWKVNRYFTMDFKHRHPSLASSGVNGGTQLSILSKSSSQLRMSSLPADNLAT

CC[C@H](C)[C@H](NC(=O)[C@H](C)NC(=O)[C@H](CCCCN)NC(=O)[C@H](CCCNC(=N)N)NC(=O)[C@H](Cc1ccccc1)NC(=O)[C@H](CCC(N)=O)NC(=O)[C@@H]1CSSC[C@H](NC(C)=O)C(=O)N[C@@H](CC(=O)O)C(=O)N[C@@H](C)C(=O)N[C@@H]([C@@H](C)O)C(=O)N1)C(=O)N[C@@H](CC(=O)O)C(=O)N[C@@H](CC(=O)O)C(=O)N[C@H]1CSSC[C@@H](C(=O)N[C@@H](CCSC)C(=O)N[C@@H](CCCCN)C(=O)N[C@@H](CCC(N)=O)C(=O)N[C@@H](CCCCN)C(=O)N[C@@H](CCCCN)C(=O)N[C@@H](CCCCN)C(=O)N[C@@H](CCC(=O)O)C(=O)N[C@@H](Cc2ccccc2)C(=O)N[C@@H](CCCCN)C(=O)N[C@@H](C)C(N)=O)NC(=O)C(C)(C)NC(=O)[C@H](CCCCN)NC(=O)[C@H](Cc2ccccc2)NC(=O)[C@H](C(C)C)NC(=O)[C@H](CO)NC(=O)CNC(=O)[C@@H]2CCCN2C(=O)[C@H](C(C)C)NC(=O)[C@H](CC(N)=O)NC(=O)[C@H](CO)NC(=O)[C@H](Cc2c[nH]cn2)NC(=O)[C@H](Cc2c[nH]cn2)NC(=O)[C@H](C)NC(=O)[C@H](CCC(N)=O)NC(=O)[C@H](CCCCN)NC(=O)[C@H](CCC(N)=O)NC1=O [SEQ ID NO 249]
pIC50 [1]: 7.00 to 9.00 | pIC50 [2]: 9.00 to 11.00

CDATCQFRKAIDDCQKQAHHSNVPGSVFKACMKQKKKEFKAH (disulfide 1-5, 14-31) [compound 153]
pIC50 [1]: 7.00 to 9.00 | pIC50 [2]: 9.00 to 11.00

CDATCQFRKAIDDCDRQAHHSNVPGSVFKACMKQKKKEWKAN-NH2 (disulfide 1-5, 14-31) [compound 158]
pIC50 [1]: 9.00 to 11.00 | pIC50 [2]: 9.00 to 11.00

CDATCQFRKAIDDCMWYSRHSNVPGSVFKACMKQKKKEFKAG-NH2 (disulfide 1-5, 14-31) [compound 121]
pIC50 [1]: 9.00 to 11.00 | pIC50 [2]: 9.00 to 11.00

CDATCQFRKAIDDCAKQAHHSNVPGSVFKACMKQKKKEWKAGH (disulfide 1-5, 14-31) [SEQ ID NO 152]
pIC50 [1]: 9.00 to 11.00 | pIC50 [2]: 9.00 to 11.00

CDATCQFRKAIDDCVRQAHHSNVPGSVFKACMKQKKKEWKAH (disulfide 1-5, 14-31) [compound 99]
pIC50 [1]: 9.00 to 11.00 | pIC50 [2]: 9.00 to 11.00

CDATCQFRKAIDDCAWFAMHSNVPGSVFKACMKQKKKEFKAG-NH2 (disulfide 1-5, 14-31) [compound 90]
pIC50 [1]: 9.00 to 11.00 | pIC50 [2]: 9.00 to 11.00

CDATCQFRKAIDDCFYQAWHSNVPGSVWKACMKFRFNVWKAG-NH2 (disulfide 1-5, 14-31) [compound 55]
pIC50 [1]: 7.00 to 9.00 | pIC50 [2]: 9.00 to 11.00

CC[C@H](C)[C@H](NC(=O)[C@H](C)NC(=O)[C@H](CCCCN)NC(=O)[C@H](CCCNC(=N)N)NC(=O)[C@H](Cc1ccccc1)NC(=O)[C@H](CCC(N)=O)NC(=O)[C@@H]1CSSC[C@H](N)C(=O)N[C@@H](CC(=O)O)C(=O)N[C@@H](C)C(=O)N[C@@H]([C@@H](C)O)C(=O)N1)C(=O)N[C@@H](CC(=O)O)C(=O)N[C@@H](CC(=O)O)C(=O)N[C@H]1CSSC[C@@H](C(=O)N[C@@H](CCSC)C(=O)N[C@@H](CCCCN)C(=O)N[C@@H](CCC(N)=O)C(=O)N[C@@H](CCCCN)C(=O)N[C@@H](CCCCN)C(=O)N[C@@H](CCCCN)C(=O)N[C@@H](CCC(=O)O)C(=O)N[C@@H](Cc2c[nH]c3ccccc23)C(=O)N[C@@H](CCCCN)C(=O)N[C@@H](C)C(=O)NCC(=O)N[C@@H](Cc2ccc(O)cc2)C(=O)O)NC(=O)[C@H](C)NC(=O)[C@H](CCCCN)NC(=O)[C@H](Cc2ccccc2)NC(=O)[C@H](C(C)C)NC(=O)[C@H](CO)NC(=O)[C@H](CO)NC(=O)[C@H](Cc2c[nH]cn2)NC(=O)[C@H](Cc2c[nH]cn2)NC(=O)[C@H](C)NC(=O)[C@H](CCC(N)=O)NC(=O)[C@H](CCCNC(=N)N)NC(=O)[C@H](C(C)C)NC1=O [compound 3] (H-CDATCQFRKAIDDCVRQAHHSSVFKACMKQKKKEWKAGY-OH; disulfide 1-5, 14-27)
pIC50 [1]: 9.00 to 11.00 | pIC50 [2]: 9.00 to 11.00

CC[C@H](C)[C@H](NC(=O)[C@H](C)NC(=O)[C@H](CCCCN)NC(=O)[C@H](CCCNC(=N)N)NC(=O)[C@H](Cc1ccccc1)NC(=O)[C@H](CCC(N)=O)NC(=O)[C@@H]1CSSC[C@H](N)C(=O)N[C@@H](CC(=O)O)C(=O)N[C@@H](C)C(=O)N[C@@H]([C@@H](C)O)C(=O)N1)C(=O)N[C@@H](CC(=O)O)C(=O)N[C@@H](CC(=O)O)C(=O)N[C@H]1CSSC[C@@H](C(=O)N[C@@H](CCSC)C(=O)N[C@@H](CCCCN)C(=O)N[C@@H](CCC(N)=O)C(=O)N[C@@H](CCCCN)C(=O)N[C@@H](CCCCN)C(=O)N[C@@H](CCCCN)C(=O)N[C@@H](CCC(=O)O)C(=O)N[C@@H](Cc2ccccc2)C(=O)N[C@@H](CCCCN)C(N)=O)NC(=O)[C@H](CCC(=O)O)NC(=O)[C@H](CCCCN)NC(=O)[C@H](Cc2ccccc2)NC(=O)[C@H](C(C)C)NC(=O)[C@H](CO)NC(=O)[C@H](CO)NC(=O)[C@H](Cc2c[nH]cn2)NC(=O)[C@H](Cc2c[nH]cn2)NC(=O)[C@H](C)NC(=O)[C@H](CCC(N)=O)NC(=O)[C@H](CCCCN)NC(=O)[C@H](CCC(N)=O)NC1=O [compound 225] (H-CDATCQFRKAIDDCQKQAHHSSVFKECMKQKKKEFK-NH2; disulfide 1-5, 14-27)
pIC50 [1]: 9.00 to 11.00 | pIC50 [2]: 7.00 to 9.00

CDATCQFRKAIDDCYYRSRHSNVPGSVFKACMKQKKKEFKAG-NH2 (disulfide 1-5, 14-31) [compound 44]
pIC50 [1]: 9.00 to 11.00 | pIC50 [2]: > 11.00

CDATCQFRKAIDDCARQAHHSNVPGSVFKACSKQKKKEWKAGH (disulfide 1-5, 14-31) [compound 40]
pIC50 [1]: 7.00 to 9.00 | pIC50 [2]: 7.00 to 9.00

CDATCQFRKAIDDCYYRSHHSNVPGSVFKACMKQKKKEFKAG-NH2 (disulfide 1-5, 14-31) [compound 45]
pIC50 [1]: 9.00 to 11.00 | pIC50 [2]: 9.00 to 11.00

CDATCQFRKAIDDCYYRSWHSNVPGSVFKACMKQRKKRWLAG-NH2 (disulfide 1-5, 14-31) [compound 69]
pIC50 [1]: 9.00 to 11.00 | pIC50 [2]: 9.00 to 11.00

CDATCQFRKAIDDCYWQAIHANVPGSVWKACMKFRFNVWKAG-NH2 (disulfide 1-5, 14-31) [compound 54]
pIC50 [1]: 7.00 to 9.00 | pIC50 [2]: 9.00 to 11.00

CDATCQFRKAIDDCQKQAHHSNVPGSVFKACMKFRFNVWKAG-NH2 (disulfide 1-5, 14-31) [compound 127]
pIC50 [1]: 9.00 to 11.00 | pIC50 [2]: 9.00 to 11.00

CDATCQFRKAIDDCVKQAHHSNVPGSVFKACMKQKKKEFKAGY (disulfide 1-5, 14-31) [compound 48]
pIC50 [1]: 9.00 to 11.00 | pIC50 [2]: 9.00 to 11.00

CDATCQFRKAIDDCDKQAHHSNVPGSVFKACMKQKKKEFQAG-NH2 (disulfide 1-5, 14-31) [compound 169]
pIC50 [1]: 9.00 to 11.00 | pIC50 [2]: 9.00 to 11.00

CDATCQFRKAIDDCQKQAHHSNVPGSVFKACMKQKKKEFKAW (disulfide 1-5, 14-31) [compound 95]
pIC50 [1]: 7.00 to 9.00 | pIC50 [2]: 7.00 to 9.00

CC[C@H](C)[C@H](NC(=O)[C@H](C)NC(=O)[C@H](CCCCN)NC(=O)[C@H](CCCNC(=N)N)NC(=O)[C@H](Cc1ccccc1)NC(=O)[C@H](CCC(N)=O)NC(=O)[C@@H]1CSSC[C@H](N)C(=O)N[C@@H](CC(=O)O)C(=O)N[C@@H](C)C(=O)N[C@@H]([C@@H](C)O)C(=O)N1)C(=O)N[C@@H](CC(=O)O)C(=O)N[C@@H](CC(=O)O)C(=O)N[C@H]1CSSC[C@@H](C(=O)N[C@@H](CCSC)C(=O)N[C@@H](CCCCN)C(=O)N[C@@H](CCC(N)=O)C(=O)N[C@@H](CCCCN)C(=O)N[C@@H](CCCCN)C(=O)N[C@@H](CCCCN)C(=O)N[C@@H](CCC(=O)O)C(=O)N[C@@H](Cc2ccccc2)C(=O)N[C@@H](CCCCN)C(=O)N[C@@H](C)C(=O)NCC(=O)N[C@@H](Cc2ccc(O)cc2)C(=O)O)NC(=O)[C@H](C)NC(=O)[C@H](CCCCN)NC(=O)[C@H](Cc2ccccc2)NC(=O)[C@H](C(C)C)NC(=O)[C@H](CO)NC(=O)[C@H](CO)NC(=O)[C@H](Cc2c[nH]cn2)NC(=O)[C@H](Cc2ccc(O)cc2)NC(=O)[C@H](C)NC(=O)[C@H](CCC(N)=O)NC(=O)[C@H](CCCCN)NC(=O)[C@H](C)NC1=O [compound 30] (H-CDATCQFRKAIDDCAKQAYHSSVFKACMKQKKKEFKAGY-OH; disulfide 1-5, 14-27)
pIC50 [1]: 9.00 to 11.00 | pIC50 [2]: 9.00 to 11.00

Source: patent US20210395313A1, “PEPTIDE PAC1 ANTAGONISTS” (AMGEN INC., priority 2017, published 2021)
